Tests used:
Glomerella lagenarium = Glomerella lagenarium (Colletotrichum lagenarium) / liquid culture (anthracnose); format: cell-based; conditions: Colletotrichum orbiculare, 72 h, photometrically 3-4 days after application, read-out: control of Glomerella lagenarium
In short: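 Conidia in potato dextrose broth added to test compound delivered as DMSO solution in microtiter plates; incubation at 24° C. Growth inhibition read photometrically 3-4 days after application.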

Alternaria solani = Alternaria solani / tomato / leaf disc (early blight); format: in vivo; conditions: foliar, inoculated 2 days after application, vs untreated control
Mycosphaerella arachidis = Mycosphaerella arachidis (Cercospora arachidicola) / liquid culture (early leaf spot); format: cell-based; conditions: 96 h, photometrically 4-5 days after application, read-out: control of Mycosphaerella arachidis
In short: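 Photometric growth inhibition, read 4-5 days post-application at 24 °C, of Cercospora arachidicola spores suspended in potato dextrose broth and exposed to test compound delivered from DMSO solution.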

Pyrenophora teres = Pyrenophora teres / barley / leaf disc preventative (net blotch); format: in vivo; conditions: foliar, inoculated 2 days after application
Description: Example B16: Pyrenophora teres/Barley/Leaf Disc Preventative (Net Blotch) Barley leaf segments cv. Hasso are placed on agar in a multiwell plate (24-well format) and sprayed with the formulated test compound diluted in water. The leaf segments are inoculated with a spore suspension of the fungus 2 days after application. The inoculated leaf segments are incubated at 20° C. and 65% relative humidity under a light regime of 12 h light/12 h darkness in a climate cabinet and the activity of a compound is assessed as disease control compared to untreated when an appropriate level of disease damage appears in untreated check leaf segments (5-7 days after application).

[1] = test system: Mycosphaerella graminicola; test: Mycosphaerella graminicola (Septoria tritici) / liquid culture (Septoria blotch); format: cell-based; conditions: Zymoseptoria tritici, 96 h, photometrically 4-5 days after application, read-out: control of Mycosphaerella graminicola
In short: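 Growth inhibition measured by photometry 4-5 days post application, at 24° C incubation. Test compound supplied as DMSO solution; fungal conidia from cryostorage suspended directly in potato dextrose broth as inoculum.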

Monographella nivalis = Monographella nivalis (Microdochium nivale) / liquid culture (foot rot cereals); format: cell-based; conditions: 96 h, photometrically 4-5 days after application, read-out: control of Monographella nivalis
In short: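 Test compound, applied as a DMSO solution, was challenged with fungal spores suspended in potato dextrose broth; after 4-5 days at 24° C, photometric readout gave inhibition of growth.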

Botryotinia fuckeliana = Botryotinia fuckeliana (Botrytis cinerea) / liquid culture (gray mould); format: cell-based; conditions: 72 h, growth inhibition photometrically 3-4 days after application, read-out: control of Botryotinia fuckeliana
Description: Example B2: Botryotinia Fuckeliana (Botrytis cinerea)/Liquid Culture (Gray Mould) Conidia of the fungus from cryogenic storage are directly mixed into a nutrient broth (Vogels broth). After placing a DMSO solution of test compound into a microtiter plate (96-well format), the nutrient broth containing the fungal spores is added. The test plates are incubated at 24° C. and the inhibition of growth is determined photometrically 3-4 days after application.

Phaeosphaeria nodorum = Phaeosphaeria nodorum (Septoria nodorum) / wheat / leaf disc preventative (glume blotch); format: in vivo; conditions: Parastagonospora nodorum, foliar, inoculated 2 days after application
Description: Example B9: Phaeosphaeria nodorum (Septoria nodorum)/Wheat/Leaf Disc Preventative (Glume Blotch) Wheat leaf segments cv. Kanzler are placed on agar in a multiwell plate (24-well format) and sprayed with the formulated test compound diluted in water. The leaf disks are inoculated with a spore suspension of the fungus 2 days after application. The inoculated test leaf disks are incubated at 20° C. and 75% relative humidity under a light regime of 12 h light/12 h darkness in a climate cabinet and the activity of a compound is assessed as percent disease control compared to untreated when an appropriate level of disease damage appears in untreated check leaf disks (5-7 days after application).

Cc1nn(C)c(C)c1C1CN(C(=O)c2cc(-c3ccc(F)cc3F)on2)Cc2ccccc21 (stereo not drawn) [Compound P-126, [5-(2,4-difluorophenyl)isoxazol-3-yl]-[4-(1,3,5-trimethylpyrazol-4-yl)-3,4-dihydro-1H-isoquinolin-2-yl]methanone]
≥ 80%: inhibition of growth at 20 ppm (Glomerella lagenarium) | pest or weed control at 200 ppm (Alternaria solani) | inhibition of growth at 20 ppm (Mycosphaerella arachidis) | pest or weed control at 200 ppm (Pyrenophora teres) | inhibition of growth at 20 ppm [1] | inhibition of growth at 20 ppm (Monographella nivalis)

Cn1cc([C@]2(C)CN(C(=O)c3cc(-c4ccc(F)cc4F)on3)Cc3ccccc32)cn1 (single isomer, unassigned) [Compound P-49]
≥ 80%: inhibition of growth at 20 ppm (Glomerella lagenarium) | inhibition of growth at 20 ppm (Botryotinia fuckeliana) | pest or weed control at 200 ppm (Phaeosphaeria nodorum) | inhibition of growth at 20 ppm [1] | inhibition of growth at 20 ppm (Monographella nivalis)

Cn1cc(C2CN(C(=O)c3cc(-c4ccccc4)no3)Cc3ccccc32)cn1 (stereo not drawn) [Compound P-158, [4-(1-methylpyrazol-4-yl)-3,4-dihydro-1H-isoquinolin-2-yl]-(3-phenylisoxazol-5-yl)methanone]
≥ 80%: inhibition of growth at 20 ppm (Glomerella lagenarium) | inhibition of growth at 20 ppm (Botryotinia fuckeliana) | pest or weed control at 200 ppm (Alternaria solani) | inhibition of growth at 20 ppm (Mycosphaerella arachidis) | inhibition of growth at 20 ppm [1] | inhibition of growth at 20 ppm (Monographella nivalis)

CON=C(C)c1c(C2CN(C(=O)c3cc(-c4ccc(F)cc4F)on3)Cc3ccccc32)cnn1C (stereo not drawn) [Compound P-13, [5-(2,4-difluorophenyl)isoxazol-3-yl]-[4-[5-(N-methoxy-C-methyl-carbonimidoyl)-1-methyl-pyrazol-4-yl]-3,4-dihydro-1H-isoquinolin-2-yl]methanone]
≥ 80%: pest or weed control at 200 ppm (Alternaria solani) | pest or weed control at 200 ppm (Phaeosphaeria nodorum) | inhibition of growth at 20 ppm [1] | inhibition of growth at 20 ppm (Monographella nivalis)

CON=C(C)C1c2ccccc2C(c2cnn(C)c2)CN1C(=O)c1cc(-c2ccc(F)cc2F)on1 (stereo not drawn) [Compound P-10, [5-(2,4-difluorophenyl)isoxazol-3-yl]-[1-(N-methoxy-C-methyl-carbonimidoyl)-4-(1-methylpyrazol-4-yl)-3,4-dihydro-1H-isoquinolin-2-yl]methanone]
≥ 80%: inhibition of growth at 20 ppm (Glomerella lagenarium) | pest or weed control at 200 ppm (Alternaria solani) | pest or weed control at 200 ppm (Phaeosphaeria nodorum) | inhibition of growth at 20 ppm [1]

Cn1cc(C2CN(C(=O)c3nnc(-c4ccc(F)cc4F)s3)Cc3ccccc32)cn1 (stereo not drawn) [Compound P-1, [5-(2,4-difluorophenyl)-1,3,4-thiadiazol-2-yl]-[4-(1-methylpyrazol-4-yl)-3,4-dihydro-1H-isoquinolin-2-yl]methanone]
≥ 80%: inhibition of growth at 20 ppm (Glomerella lagenarium) | inhibition of growth at 20 ppm (Botryotinia fuckeliana) | inhibition of growth at 20 ppm (Mycosphaerella arachidis) | inhibition of growth at 20 ppm [1] | inhibition of growth at 20 ppm (Monographella nivalis)

Cn1cc(C2CN(C(=O)c3nnc(-c4ccccc4)s3)Cc3ccccc32)cn1 (stereo not drawn) [Compound P-162, [4-(1-methylpyrazol-4-yl)-3,4-dihydro-1H-isoquinolin-2-yl]-(5-phenyl-1,3,4-thiadiazol-2-yl)methanone]
≥ 80%: inhibition of growth at 20 ppm (Glomerella lagenarium) | inhibition of growth at 20 ppm (Botryotinia fuckeliana) | inhibition of growth at 20 ppm (Mycosphaerella arachidis) | inhibition of growth at 20 ppm [1] | inhibition of growth at 20 ppm (Monographella nivalis)

Cn1cc(C2CN(C(=O)c3cc(-c4ccc(F)cc4F)on3)Cc3ccccc32)cn1 (single isomer, unassigned) [Compound P-142, [5-(2,4-difluorophenyl)isoxazol-3-yl]-[4-(1-methylpyrazol-4-yl)-3,4-dihydro-1H-isoquinolin-2-yl]methanone]
≥ 80%: inhibition of growth at 20 ppm (Glomerella lagenarium) | inhibition of growth at 20 ppm (Botryotinia fuckeliana) | pest or weed control at 200 ppm (Alternaria solani) | inhibition of growth at 20 ppm (Mycosphaerella arachidis) | pest or weed control at 200 ppm (Phaeosphaeria nodorum) | inhibition of growth at 20 ppm [1] | inhibition of growth at 20 ppm (Monographella nivalis)

Cn1cc(C2CN(C(=O)c3cc(-c4ccccc4F)no3)Cc3ccccc32)cn1 (stereo not drawn) [Compound P-154, [3-(2-fluorophenyl)isoxazol-5-yl]-[4-(1-methylpyrazol-4-yl)-3,4-dihydro-1H-isoquinolin-2-yl]methanone]
≥ 80%: inhibition of growth at 20 ppm (Glomerella lagenarium) | inhibition of growth at 20 ppm (Botryotinia fuckeliana) | inhibition of growth at 20 ppm (Mycosphaerella arachidis) | inhibition of growth at 20 ppm [1] | inhibition of growth at 20 ppm (Monographella nivalis)

COc1ccc2c(c1)C(C)(c1cnn(C)c1)CN(C(=O)c1cc(-c3ccc(F)cc3F)on1)C2C (stereo not drawn) [Compound P-40, [5-(2,4-difluorophenyl)isoxazol-3-yl]-[6-methoxy-1,4-dimethyl-4-(1-methylpyrazol-4-yl)-1,3-dihydroisoquinolin-2-yl]methanone]
≥ 80%: inhibition of growth at 20 ppm (Mycosphaerella arachidis) | pest or weed control at 200 ppm (Phaeosphaeria nodorum) | inhibition of growth at 20 ppm [1] | inhibition of growth at 20 ppm (Monographella nivalis)

COc1ccc2c(c1)C(C)N(C(=O)c1cc(-c3ccc(F)cc3F)on1)CC2(C)c1cnn(C)c1 (stereo not drawn) [Compound P-18, [5-(2,4-difluorophenyl)isoxazol-3-yl]-[7-methoxy-1,4-dimethyl-4-(1-methylpyrazol-4-yl)-1,3-dihydroisoquinolin-2-yl]methanone]
≥ 80%: inhibition of growth at 20 ppm (Glomerella lagenarium) | pest or weed control at 200 ppm (Alternaria solani) | inhibition of growth at 20 ppm (Mycosphaerella arachidis) | pest or weed control at 200 ppm (Pyrenophora teres) | inhibition of growth at 20 ppm [1] | inhibition of growth at 20 ppm (Monographella nivalis)

Cn1cc(C2CN(C(=O)c3nc(-c4ccccc4)no3)Cc3ccccc32)cn1 (stereo not drawn) [Compound P-152, [4-(1-methylpyrazol-4-yl)-3,4-dihydro-1H-isoquinolin-2-yl]-(3-phenyl-1,2,4-oxadiazol-5-yl)methanone]
≥ 80%: inhibition of growth at 20 ppm (Glomerella lagenarium) | inhibition of growth at 20 ppm (Botryotinia fuckeliana) | inhibition of growth at 20 ppm (Mycosphaerella arachidis) | inhibition of growth at 20 ppm [1] | inhibition of growth at 20 ppm (Monographella nivalis)

Cn1cc(C2CN(C(=O)c3nnc(-c4ccccc4F)o3)Cc3ccccc32)cn1 (stereo not drawn) [Compound P-54, [5-(2-fluorophenyl)-1,3,4-oxadiazol-2-yl]-[4-(1-methylpyrazol-4-yl)-3,4-dihydro-1H-isoquinolin-2-yl]methanone]
≥ 80%: pest or weed control at 200 ppm (Pyrenophora teres) | inhibition of growth at 20 ppm [1]

CCC1(c2cnn(C)c2)CN(C(=O)c2cc(-c3ccc(F)cc3F)on2)Cc2ccccc21 (stereo not drawn) [Compound P-221, [5-(2,4-difluorophenyl)isoxazol-3-yl]-[4-ethyl-4-(1-methylpyrazol-4-yl)-1,3-dihydroisoquinolin-2-yl]methanone]
≥ 80%: inhibition of growth at 20 ppm (Mycosphaerella arachidis) | pest or weed control at 200 ppm (Phaeosphaeria nodorum) | inhibition of growth at 20 ppm [1]

Cn1cc(C2CN(C(=O)c3cc(-c4ccc(F)cc4F)on3)Cc3ccc(C#N)cc32)cn1 (stereo not drawn) [Compound P-62, 2-[5-(2,4-difluorophenyl)isoxazole-3-carbonyl]-4-(1-methylpyrazol-4-yl)-3,4-dihydro-1H-isoquinoline-6-carbonitrile]
≥ 80%: inhibition of growth at 20 ppm (Glomerella lagenarium) | pest or weed control at 200 ppm (Phaeosphaeria nodorum) | inhibition of growth at 20 ppm [1] | inhibition of growth at 20 ppm (Monographella nivalis)

Cc1c(C2CN(C(=O)c3noc(-c4ccc(F)cc4F)n3)Cc3ccccc32)cnn1C (stereo not drawn) [Compound P-228, [5-(2,4-difluorophenyl)-1,2,4-oxadiazol-3-yl]-[4-(1,5-dimethylpyrazol-4-yl)-3,4-dihydro-1H-isoquinolin-2-yl]methanone]
≥ 80%: inhibition of growth at 20 ppm (Glomerella lagenarium) | pest or weed control at 200 ppm (Alternaria solani) | inhibition of growth at 20 ppm (Mycosphaerella arachidis) | pest or weed control at 200 ppm (Pyrenophora teres) | inhibition of growth at 20 ppm [1] | inhibition of growth at 20 ppm (Monographella nivalis)

COc1cc(F)ccc1-c1cc(C(=O)N2Cc3ccccc3C(c3cnn(C)c3C)C2)no1 (stereo not drawn) [Compound P-46, [4-(1,5-dimethylpyrazol-4-yl)-3,4-dihydro-1H-isoquinolin-2-yl]-[5-(4-fluoro-2-methoxy-phenyl)isoxazol-3-yl]methanone]
≥ 80%: pest or weed control at 200 ppm (Alternaria solani) | inhibition of growth at 20 ppm (Mycosphaerella arachidis) | pest or weed control at 200 ppm (Phaeosphaeria nodorum) | inhibition of growth at 20 ppm [1] | inhibition of growth at 20 ppm (Monographella nivalis)

Cc1ccc(-c2cc(C(=O)N3Cc4ccccc4C(c4cnn(C)c4)C3)no2)cc1 (stereo not drawn) [Compound P-204, [4-(1-methylpyrazol-4-yl)-3,4-dihydro-1H-isoquinolin-2-yl]-[5-(p-tolyl)isoxazol-3-yl]methanone]
≥ 80%: pest or weed control at 200 ppm (Phaeosphaeria nodorum) | inhibition of growth at 20 ppm [1]
